In PubChem BioAssay (NCI):
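Each compound was tested at five concentrations against cells in 96-well plates for 48 hours. GI50: concentration for 50% inhibition of growth. TGI: concentration producing complete growth inhibition.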

Columns and labels:
Assay in all cases: DTP human tumour cell line panel, 48 h
SNB-19 CNS = system: SNB-19 CNS
SK-MEL-5 melanoma = system: SK-MEL-5 melanoma
OVCAR-3 ovarian = system: OVCAR-3 ovarian
HL-60(TB) leukemia = system: HL-60(TB) leukemia
OVCAR-4 ovarian = system: OVCAR-4 ovarian
LOX IMVI melanoma = system: LOX IMVI melanoma
NCI-H23 lung = system: NCI-H23 lung
IGROV1 ovarian = system: IGROV1 ovarian
MCF7 breast = system: MCF7 breast
CAKI-1 renal = system: CAKI-1 renal
NCI-H460 lung = system: NCI-H460 lung
SN12C renal = system: SN12C renal
HOP-62 NSCLC = system: HOP-62 NSCLC
HOP-92 NSCLC = system: HOP-92 NSCLC
MDA-MB-468 breast = system: MDA-MB-468 breast
HCT-15 colon = system: HCT-15 colon
SK-MEL-28 melanoma = system: SK-MEL-28 melanoma
K-562 leukemia = system: K-562 leukemia
COLO 205 colon = system: COLO 205 colon
M14 melanoma = system: M14 melanoma
DU-145 prostate = system: DU-145 prostate
SW-620 colon = system: SW-620 colon
NCI-H522 lung = system: NCI-H522 lung
BT-549 breast = system: BT-549 breast
SK-OV-3 ovarian = system: SK-OV-3 ovarian
A549 NSCLC = system: A549 NSCLC
HCC-2998 colon = system: HCC-2998 colon
UACC-62 melanoma = system: UACC-62 melanoma
SF-268 CNS = system: SF-268 CNS
UO-31 renal = system: UO-31 renal
OVCAR-5 ovarian = system: OVCAR-5 ovarian
NCI-H226 lung = system: NCI-H226 lung
KM12 colon = system: KM12 colon
RPMI-8226 leukemia = system: RPMI-8226 leukemia
EKVX NSCLC = system: EKVX NSCLC
MALME-3M melanoma = system: MALME-3M melanoma
MDA-MB-435 = system: MDA-MB-435
SF-295 CNS = system: SF-295 CNS
ACHN renal = system: ACHN renal
TK-10 renal = system: TK-10 renal
HCT-116 colon = system: HCT-116 colon
U251 CNS = system: U251 CNS
PC-3 prostate = system: PC-3 prostate
HT29 colon = system: HT29 colon
OVCAR-8 ovarian = system: OVCAR-8 ovarian
T-47D breast = system: T-47D breast
CCRF-CEM leukemia = system: CCRF-CEM leukemia
MDA-MB-231 breast = system: MDA-MB-231 breast
SR leukemia = system: SR leukemia
A498 renal = system: A498 renal
MOLT-4 leukemia = system: MOLT-4 leukemia
SK-MEL-2 melanoma = system: SK-MEL-2 melanoma
HS 578T breast = system: HS 578T breast
UACC-257 melanoma = system: UACC-257 melanoma
786-0 renal = system: 786-0 renal
SF-539 CNS = system: SF-539 CNS
SNB-75 CNS = system: SNB-75 CNS
RXF 393 renal = system: RXF 393 renal

## O=C1Nc2cc(Cl)ccc2/C1=C/c1cccc(OCc2ccccc2)c1
SNB-19 CNS
  GI50: 10.2 µM
  TGI: 25.7 µM
SK-MEL-5 melanoma
  GI50: 3.17 µM
  TGI: 11.4 µM
OVCAR-3 ovarian
  GI50: 2.89 µM
  TGI: 9.48 µM
HL-60(TB) leukemia
  GI50: 2.23 µM
  TGI: 6.49 µM
OVCAR-4 ovarian
  GI50: 3.7 µM
  TGI: 19.1 µM
LOX IMVI melanoma
  GI50: 2.75 µM
  TGI: 11.4 µM
NCI-H23 lung
  GI50: 4.23 µM
  TGI: 21.5 µM
IGROV1 ovarian
  GI50: 3.43 µM
  TGI: 18.3 µM
MCF7 breast
  GI50: 1.67 µM
  TGI: 12.9 µM
CAKI-1 renal
  GI50: 2.77 µM
  TGI: 16.4 µM
NCI-H460 lung
  GI50: 3.24 µM
  TGI: 11.5 µM
SN12C renal
  GI50: 6.93 µM
  TGI: 20.3 µM
HOP-62 NSCLC
  GI50: 9.61 µM
  TGI: 29.1 µM
HOP-92 NSCLC
  GI50: 1.33 µM
  TGI: 9.75 µM
MDA-MB-468 breast
  GI50: 2.43 µM
  TGI: 14.1 µM
HCT-15 colon
  GI50: 2.58 µM
  TGI: 13.3 µM
SK-MEL-28 melanoma
  GI50: 5.3 µM
  TGI: 17.9 µM
K-562 leukemia
  GI50: 2.13 µM
  TGI: 10.2 µM
COLO 205 colon
  GI50: 13.8 µM
  TGI: 30.2 µM
M14 melanoma
  GI50: 3.19 µM
  TGI: 15.5 µM
DU-145 prostate
  GI50: 10.9 µM
  TGI: 42.1 µM
SW-620 colon
  GI50: 3.59 µM
  TGI: 14.5 µM
NCI-H522 lung
  GI50: 2.93 µM
  TGI: 12.2 µM
BT-549 breast
  GI50: 2.44 µM
  TGI: 11.2 µM
SK-OV-3 ovarian
  GI50: 13.1 µM
  TGI: 31.6 µM
A549 NSCLC
  GI50: 10 µM
  TGI: 24.9 µM
HCC-2998 colon
  GI50: 11.9 µM
  TGI: 25.3 µM
UACC-62 melanoma
  GI50: 2.41 µM
  TGI: 10.1 µM
SF-268 CNS
  GI50: 3.26 µM
  TGI: 15.1 µM
UO-31 renal
  GI50: 2.45 µM
  TGI: 18.6 µM
OVCAR-5 ovarian
  GI50: 11.8 µM
  TGI: 24.4 µM
NCI-H226 lung
  GI50: 6.43 µM
  TGI: 22.2 µM
KM12 colon
  GI50: 3.69 µM
  TGI: 14.1 µM
RPMI-8226 leukemia
  GI50: 2.13 µM
  TGI: 11.7 µM
EKVX NSCLC
  GI50: 5.35 µM
  TGI: 23.7 µM
MALME-3M melanoma
  GI50: 4.3 µM
  TGI: 16.7 µM
MDA-MB-435
  GI50: 2.04 µM
  TGI: 4.45 µM
SF-295 CNS
  GI50: 5.18 µM
  TGI: 21 µM
ACHN renal
  GI50: 3.97 µM
  TGI: 16.1 µM
TK-10 renal
  GI50: 16.2 µM
  TGI: 35.9 µM
HCT-116 colon
  GI50: 2.43 µM
  TGI: 12.7 µM
U251 CNS
  GI50: 3.5 µM
  TGI: 13.7 µM
PC-3 prostate
  GI50: 4.67 µM
  TGI: 20.5 µM
HT29 colon
  GI50: 5.92 µM
  TGI: 20.3 µM
OVCAR-8 ovarian
  GI50: 6.86 µM
  TGI: 25.3 µM
T-47D breast
  GI50: 4.73 µM
  TGI: 30 µM
CCRF-CEM leukemia
  GI50: 2.86 µM
  TGI: 13.1 µM
MDA-MB-231 breast
  GI50: 4.76 µM
  TGI: 18.6 µM
SR leukemia
  GI50: 2.1 µM
  TGI: 5.86 µM
A498 renal
  GI50: 13.7 µM
  TGI: 27.9 µM
MOLT-4 leukemia
  GI50: 2.69 µM
  TGI: 10.9 µM
SK-MEL-2 melanoma
  GI50: 3.68 µM
  TGI: 15 µM
HS 578T breast
  GI50: 3.46 µM
  TGI: 22.8 µM
UACC-257 melanoma
  GI50: 6.18 µM
  TGI: 21.2 µM
786-0 renal
  GI50: 3.12 µM
  TGI: 15.9 µM
SF-539 CNS
  GI50: 2.27 µM
  TGI: 5.49 µM
SNB-75 CNS
  GI50: 3.23 µM
  TGI: 21.2 µM
RXF 393 renal
  GI50: 10.8 µM
  TGI: 24.4 µM
